In PubChem BioAssay (NCI):
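1) Cells in 96-well plates. 2) Compound, 48 h, 5 concentrations. 3) Linear interpolation between surrounding doses. 4) Unreached endpoint = highest concentration. TGI is the concentration that stops growth completely.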

Assays:
Assay in all cases: NCI anticancer screen, dose series, 48 h
[1] = test system: NCI-H522 lung
[2] = test system: UO-31 renal
[3] = test system: SK-MEL-28 melanoma
[4] = test system: KM12 colon
[5] = test system: LOX IMVI melanoma
[6] = test system: OVCAR-3 ovarian
[7] = test system: HCT-15 colon
[8] = test system: HCT-116 colon
[9] = test system: OVCAR-8 ovarian
[10] = test system: MOLT-4 leukemia
[11] = test system: HL-60(TB) leukemia
[12] = test system: SK-OV-3 ovarian
[13] = test system: CCRF-CEM leukemia
[14] = test system: EKVX NSCLC
[15] = test system: XF 498 CNS
[16] = test system: SW-620 colon
[17] = test system: COLO 205 colon
[18] = test system: RXF 393 renal
[19] = test system: M19-MEL melanoma
[20] = test system: SF-539 CNS
[21] = test system: DMS 273 small cell lung
[22] = test system: HT29 colon
[23] = test system: SK-MEL-5 melanoma
[24] = test system: DLD-1 colon
[25] = test system: SNB-75 CNS
[26] = test system: ACHN renal
[27] = test system: HOP-62 NSCLC
[28] = test system: MALME-3M melanoma
[29] = test system: U251 CNS
[30] = test system: M14 melanoma
[31] = test system: NCI-H226 lung
[32] = test system: UACC-62 melanoma
[33] = test system: SF-295 CNS
[34] = test system: 786-0 renal
[35] = test system: NCI-H460 lung
[36] = test system: HOP-18 NSCLC
[37] = test system: A549 NSCLC
[38] = test system: IGROV1 ovarian
[39] = test system: RPMI-8226 leukemia
[40] = test system: DMS 114 small cell lung
[41] = test system: SNB-19 CNS
[42] = test system: UACC-257 melanoma
[43] = test system: SN12C renal
[44] = test system: NCI-H23 lung
[45] = test system: K-562 leukemia
[46] = test system: TK-10 renal

Measured: TGI

N/C=N/S(=O)(=O)c1ccc(NC(=O)COC(=O)c2cccc3c(=O)c4ccccc4[nH]c23)cc1
> 100 µM: all assays above
